Source: US20090075915A1, “6,11-BICYCLOLIDES: BRIDGED BIARYL MACROLIDE DERIVATIVES” (priority 2007, published 2009)
Converted amounts (≈) assume the structure as drawn.

Experiments:
H influenzae 33929 = assay: MIC, H influenzae 33929; assay type: cell-based, Haemophilus influenzae; details: for MIC: Haemophilus influenzae, 33929, Table 5; for H. influenzae 33929 (microbiological data): Table 6, related compounds of US 6878691
Experimental: (§1) Susceptibility tests can be used to quantitatively measure the in vitro activity of an antimicrobial agent against a given bacterial isolate. Compounds are tested for in vitro antibacterial activity by a micro-dilution method. Minimal Inhibitory Concentration (MIC) is determined in 96 well microtiter plates utilizing the appropriate broth medium for the observed bacterial isolates. Antimicrobial agents are serially diluted (2-fold) in DMSO to produce a concentration range from about 64 μg/ml to about 0.03 μg/ml. The diluted compounds (2 μl/well) are then transferred into sterile, uninoculated medium (0.2 mL) by use of a 96 fixed tip-pipetting station. The inoculum for each bacterial strain is standardized to approximately 5×10^5 CFU/mL by optical comparison to a 0.5 McFarland turbidity standard. The plates are inoculated with 10 μl/well of adjusted bacterial inoculum. The 96 well plates are covered and incubated at 35±2° C. for 24 hours in ambient air environment. Following incubation, plate wells are visually examined by Optical Density measurement for the presence of growth (turbidity). The lowest concentration of an antimicrobial agent at which no visible growth occurs is defined as the MIC.
(§2) All in vitro testing follows the guidelines described in the Approved Standards M7-A7 protocol, published by the Clinical Laboratory Standards Institute (CLSI).

H influenzae 49247 = assay: MIC, H influenzae 49247; assay type: cell-based, Haemophilus influenzae; details: for MIC: Haemophilus influenzae, 49247, Table 5; for H. influenzae 49247 (microbiological data): Table 6, related compounds of US 6878691
Experimental: as §1, §2

MRSA 33591 = assay: MIC, MRSA 33591; assay type: cell-based, Staphylococcus aureus; details: for MIC: Staphylococcus aureus, MRSA, Table 5; for MRSA 33591 (microbiological data): Table 6, related compounds of US 6878691
Experimental: as §1, §2

MRSA 7662 = assay: MIC, MRSA 7662; assay type: cell-based; details: Staphylococcus aureus, Table 5, read-out: MIC MRSA 7662
Experimental: as §1, §2

MIC (H influenzae 33929)	MIC (H influenzae 49247)	MIC (MRSA 33591)	MIC (MRSA 7662)	Structure (SMILES)	H. influenzae 33929 (microbiological data) (H influenzae 33929)	H. influenzae 49247 (microbiological data) (H influenzae 49247)	MRSA 33591 (microbiological data) (MRSA 33591)
2 µg/mL (≈ 2.4 µM)	1 µg/mL (≈ 1.2 µM)			CC[C@H]1OC(=O)[C@H](C)C(=O)[C@H](C)[C@@H](O[C@@H]2O[C@H](C)C[C@H](N(C)C)[C@H]2O)[C@@]2(C)C[C@@H](C)C(=O)[C@H](C)[C@@H](OC/C(=N\OCc3ccc(-c4nc(N)ns4)cn3)CO2)[C@]1(C)O [Compound 2]			
4 µg/mL (≈ 4.42 µM)	1 µg/mL (≈ 1.1 µM)	2 µg/mL (≈ 2.21 µM)	1 µg/mL (≈ 1.1 µM)	CCC(=O)/N=C1\[C@H](C)C[C@@]2(C)OC/C(=N/OCc3csc(-c4cccc(N)n4)n3)CO[C@H]([C@H]1C)[C@](C)(O)[C@@H](CC)OC(=O)[C@@](C)(F)C(=O)[C@H](C)[C@H]2O[C@@H]1O[C@H](C)C[C@H](N(C)C)[C@H]1O [Compound 3]			
		4 µg/mL (≈ 4.5 µM)	2 µg/mL (≈ 2.25 µM)	CCC(=O)/N=C1\[C@H](C)C[C@@]2(C)OC/C(=N/OCc3coc(-c4cccc(N)n4)n3)CO[C@H]([C@H]1C)[C@](C)(O)[C@@H](CC)OC(=O)[C@@](C)(F)C(=O)[C@H](C)[C@H]2O[C@@H]1O[C@H](C)C[C@H](N(C)C)[C@H]1O [Compound 11]			
				CCC1OC(=O)C(C)C(=O)C(C)C(OC2OC(C)CC(N(C)C)C2O)C2(C)CC(C)C(=NC(C)=O)C(C)C(OCC(=NOCc3ccc(-c4cccnc4)s3)CO2)C1(C)O (centres unmarked) [Example 66 in US 6878691]	16	16	>64
				CCC1OC(=O)C(C)C(=O)C(C)C(OC2OC(C)CC(N(C)C)C2O)C2(C)CC(C)C(=NC(C)=O)C(C)C(OCC(=NOCc3cc(-c4cccnc4)no3)CO2)C1(C)O (centres unmarked) [Example 69 in US 6878691]	16	16	>64
				CCC1OC(=O)C(C)C(=O)C(C)C(OC2OC(C)CC(N(C)C)C2O)C2(C)CC(C)C(=NC(C)=O)C(C)C(OCC(=NOCc3ccc(-c4csnn4)cc3)CO2)C1(C)O (centres unmarked) [Example 72 in US 6878691]	8	8	>64
				CCC1OC(=O)C(C)C(=O)C(C)C(OC2OC(C)CC(N(C)C)C2O)C2(C)CC(C)C(=NC(C)=O)C(C)C(OCC(=NOCc3ccc(-n4cncn4)cc3)CO2)C1(C)O (centres unmarked) [Example 91 in US 6878691]	16	8	>64
				CCC1OC(=O)C(C)C(=O)C(C)C(OC2OC(C)CC(N(C)C)C2O)C2(C)CC(C)C(=NC(C)=O)C(C)C(OCC(=NOCc3noc(-c4ccccc4)n3)CO2)C1(C)O (centres unmarked) [Example 106 in US 6878691]	8	8	>64
				CCC1OC(=O)C(C)C(=O)C(C)C(OC2OC(C)CC(N(C)C)C2O)C2(C)CC(C)C(=NC(C)=O)C(C)C(OCC(=NOCc3ccc(-c4ccccn4)s3)CO2)C1(C)O (centres unmarked) [Example 115 in US 6878691]	16	16	>64
				CCC1OC(=O)C(C)(F)C(=O)C(C)C(OC2OC(C)CC(N(C)C)C2O)C2(C)CC(C)C(=NC(C)=O)C(C)C(OCC(=NOCc3ccc(-c4ncccn4)s3)CO2)C1(C)O (centres unmarked) [Example 140 in US 6878691]	8	8	16
				CCC1OC(=O)C(C)(F)C(=O)C(C)C(OC2OC(C)CC(N(C)C)C2O)C2(C)CC(C)C(=NC(C)=O)C(C)C(OCC(=NOCc3ccc(-c4cnccn4)s3)CO2)C1(C)O (centres unmarked) [Example 141 in US 6878691]	8	8	32
